Counter-ions that a name gives are not always drawn.
Assays:
[1] = test system: total TGF-β1; test: production of total TGF-β1 in glomeruli isolated from nephritic mice (ELISA); assay type: cell-based, BALB/c male mice; details: Mus musculus, 10^-6 M, 48 hours, supernatant acid treated, read-out: Inhibition rate (%) of production of total TGF-β1
Procedure: BALB/c male mice were adapted in a feeding chamber for 1 week before subjecting to experiments. Nephritis was induced by subcutaneously injecting an emulsion of rabbit γ-globulin and Freund's complete adjuvant on the back in a dose amount of 1.0 mg per mouse and, after 5 days (on the zeroth day), intravenously injecting rabbit anti-mouse GBM serum in a dose amount of 0.1 ml per mouse. After 1 day from the injection of anti-serum, the glomeruli were isolated through sieves with different sizes and washed twice. Each compound to be tested (10^-6 M) was added while the solvent was added to the control groups. The glomeruli were incubated in RPMI-1640 serum-free medium for 48 hours. The amount of production of active TGF-β1 was determined by measuring the supernatant itself after the incubation for 48 hours in ELSA method. Further, the supernatant was treated with hydrochloric acid and the pH was returned with sodium hydroxide. The total amount of TGF-β1 produced in the supernatant was measured in ELISA method. The protein concentration in the medium was also measured as glomeruli protein concentration. The inhibition rate was calculated by the following equation.
Inhibition rate (%)=100×(value of control group-value of sample)/(value of control group)

[2] = test system: anti-GBM nephritic mice; test: anti-GBM nephritic mice: proteinuria, serum cholesterol, blood urea nitrogen and serum creatinine; assay type: in vivo, BALB/c mice; details: for Total Evaluation: 3 × (number of + in proteinuria) + (number of + in serum parameter); for Proteinuria 5th day: 5th day from intravenous injection of anti-GBM serum; for Proteinuria 5th day / Proteinuria 10th day / Serum Parameter BUN (blood urea nitrogen) / Serum Parameter S-Ch (serum cholesterol) / Serum Parameter S-Cr (serum creatinine): oral; for Proteinuria 10th day: 10th day from intravenous injection of anti-GBM serum; for Serum Parameter BUN (blood urea nitrogen) / Serum Parameter S-Ch (serum cholesterol) / Serum Parameter S-Cr (serum creatinine): 11th day;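 for Proteinuria 10th day: minus not effective plus trend double p<0.05 triple p<0.01 quadruple p<0.001 improvement vs control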;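 for Proteinuria 5th day: minus not effective plus trend double p<0.05 triple p<0.01 quadruple p<0.001 improvement vs control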;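 for Serum Parameter BUN (blood urea nitrogen): minus not effective plus trend double p<0.05 triple p<0.01 quadruple p<0.001 improvement vs control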;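 for Serum Parameter S-Ch (serum cholesterol): minus not effective plus trend double p<0.05 triple p<0.01 quadruple p<0.001 improvement vs control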
Procedure: BALB/c mice (5 weeks old, purchased from Nippon Charles Liver) were quarantined and adapted for about 1 week before subjecting to experiments. These mice were divided into several groups for the experiments so that average body weights and standard deviations were almost identical in all groups. Mouse anti-GBM (glomerular basement membrane) nephritis was caused by immunizing the mice with rabbit γ-globulin (1 mg) with Freund's complete adjuvant and intravenously injecting rabbit anti-mouse GBM serum on the fifth day from the immunization. Each compound tested was forcedly orally administered via an oral sonde almost simultaneously with the intravenous injection of the anti-GBM serum. On the 5th and 10th days from the intravenous injection, urine was taken by a plastic metabolic cage and proteinuria was measured (Ohtsuka Tonein TP2). On the 11th day, blood was taken by cutting the carotid and serum cholesterol (S--Ch), blood urea nitrogen (BUN) and serum creatinine (S--Cr) were measured by Toshiba TBA-380 autoanalyzer.

Row | Structure (SMILES) | inhibition at 1 µM [1] [%] | Total Evaluation [2] | Proteinuria 5th day [2] | Proteinuria 10th day [2] | Serum Parameter BUN (blood urea nitrogen) [2] | Serum Parameter S-Ch (serum cholesterol) [2] | Serum Parameter S-Cr (serum creatinine) [2]
1 | COc1ccc(CCN(C)C(=O)/C(C#N)=C/c2cccnc2)cc1OC [Compound 2] | 56.7 | 13 | + | +++ | - | - | +
2 | CCN(CCc1ccc(OC)c(OC)c1)C(=O)/C=C/c1cccnc1 [Compound 12] | 37.8 | 8 | - | + | + | + | +++
3 | COc1ccc(CCN(C)C(=O)/C=C/c2cncc(Cl)c2)cc1OC [Compound 29] | 32.6 | 16 | ++ | ++ | + | ++ | +
4 | COC(=O)c1cncc(/C=C/C(=O)N(C)CCc2ccc(OC)c(OC)c2)c1 [Compound 33] | 49.8 | 7 | ++ | ++ | - | ++ | +
5 | COc1ccc(CCN(C)C(=O)/C=C/c2cccnc2)cc1 [Compound 49] | 59 | 7 | - | + | + | + | ++
6 | COc1ccc(CCN(C)C(=O)/C=C/c2cccnc2)cc1O [Compound 51] | 56.8 |  |  |  |  |  | 
7 | COc1ccc(CCNC(=O)/C=C/c2cccnc2)cc1OC [Compound 55] | 75.7 | 17 | + | +++ | ++ | +++ | -
8 | COc1ccc(CCN(C)C(=O)/C(C)=C/c2cccnc2)cc1OC [Compound 62] | 31.9 | 14 | - | +++ | ++ | +++ | +
9 | O=C(/C=C/c1cccnc1)NCCc1cccc(OCC(=O)NC2CCCC2)c1 [Compound 116] |  | 10 | + | + | ++ | + | +
10 | O=C(/C=C/c1cccnc1)NCCc1cccc(OCC(=O)NO)c1 [Compound 120] | 56.9 |  |  |  |  |  | 
11 | CCNC(=O)Oc1cccc(CCNC(=O)/C=C/c2cccnc2)c1 [Compound 127, (E)-N-[3-[(ethylcarbamoyl)oxy]-phenethyl]-3-(3-pyridyl)-2-propenoic acid amide] |  | 17 | +++ | ++ | - | ++ | -
12 | CCNC(=O)Oc1ccc(CCN(C)C(=O)/C=C/c2cccnc2)cc1OC(=O)NCC [Compound 133] |  | 9 | + | + | + | + | +
13 | COc1ccc(CCN(C)C(=S)/C=C/c2cccnc2)cc1OC [Compound 135, (E)-N-(3,4-dimethoxyphenethyl)-N-methyl-3-(3-pyridyl)-2-propenoic acid thioamide hydrochloride] | 47.1 | 6 | - | + | + | + | +
14 | COc1ccc(CCN(C)C(=O)/C=C/c2cccnc2)cc1OC [Compound 140] |  | 14 | + | ++ | ++ | ++ | +
15 | O=C(O)COc1ccc(CCNC(=O)/C=C/c2cccnc2)cc1 [Compound 149] | 35.9 |  |  |  |  |  | 
16 | O=C(O)COc1cccc(CCNC(=S)/C=C/c2cccnc2)c1 [Compound 151] | 19.1 |  |  |  |  |  | 
17 | COc1ccc(CCN(C)C(=O)/C=C/c2ccccn2)cc1OC [Compound 153] | 31 |  |  |  |  |  | 
18 | COc1ccc(CCN(C)C(=O)/C=C/c2ccncc2)cc1OC [Compound 154] | 53.4 |  |  |  |  |  | 
19 | COc1ccc(C(=O)CN(C)C(=O)/C=C/c2cccnc2)cc1OC [Compound 155, (E) -N-[2-(3,4-dimethoxyphenyl)-2-oxoethyl]-N-methyl-3-(3-pyridyl)-2-propenoicacid amide] |  | 28 | ++++ | ++++ | + | +++ | -
20 | COc1ccc(C(CN(C)C(=O)/C=C/c2cccnc2)=NO)cc1OC [Compound 156, (E)-N-[2-(3,4-dimethoxyphenyl)-2-(hydroxyimino)ethyl]-N-methyl-3-(3-pyridyl)-2-propenoic acid amide] |  | 7 | + | + | - | + | -
21 | COc1cc(C(O)CN(C)C(=O)/C=C/c2cccnc2)ccc1O (centres unmarked) [Compound 158, (E)-N-[2-hydroxy-2-(3-methoxy-4-hydroxyphenyl)ethyl]-N-methyl-3-(3-pyridyl)-2-propenoic acid amide] |  | 7 | + | + | - | + | -
22 | CCOC(=O)COc1cccc(C(O)CNC(=O)/C=C/c2cccnc2)c1 (centres unmarked) [Compound 159, ethyl [3-[1-hydroxy-2-((E) -3-(3-pyridyl)acryloylamino]ethyl]phenoxy]acetate] |  | 10 | ++ | + | - | + | -
23 | O=C(/C=C/c1cccnc1)NCC(=O)c1cccc(O)c1 [Compound 160, (E)-N-(3-hydroxyphenacyl)-3-(3-pyridyl)-2-propenoic acid amide] |  | 14 | +++ | + | - | ++ | -
24 | CCOC(=O)COc1cccc(C(=O)CNC(=O)/C=C/c2cccnc2)c1 [Compound 161] |  | 10 | ++ | + | - | + | -
25 | COc1cc(C(=O)CN(C)C(=O)/C=C/c2cccnc2)ccc1O [Compound 162, (E)-N-methyl-N-(3-methoxy-4-hydroxyphenacyl)-3-(3-pyridyl)-2-propenoic acid amide] |  | 13 | +++ | + | - | + | -
26 | COc1ccc(C(=O)CN(C)C(=S)/C=C/c2cccnc2)cc1OC [Compound 165, (E)-N-[2-(3,4-dimethoxyphenyl)-2-oxoethyl]-N-methyl-3-(3-pyridyl)-2-propenoic acid thioamide] |  | 22 | +++ | +++ | + | +++ | -

— patent US6313153A, “Compositions and methods for treating nephritis and inhibiting TGF -β related conditions using pyridylacrylamide derivatives” (Tsumura & Co., priority 1997, dated 2001)
